Results as given in patent US12077503B2, “Substituted cyclic amides and their use as herbicides” (FMC CORPORATION, priority 2015, dated 2024).

How the values were obtained:
Assay type in all cases: in vivo
[1] = tested on: Kochia (Kochia scoparia); test: Test A preemergence; details: for Plant response rating, Kochia: 125 g ai/ha, preemergence, 0 to 100 scale (0 no effect, 100 complete control); for Kochia plant response rating (0 to 100 scale, 0 is no effect, 100 is complete control): Preemergence, 500 g ai/ha, visual injury approx. 10 d
How it was run: (§1)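 Each rating is a visual injury score from 0 to 100 given about 10 d after treatment, judged against untreated controls kept alongside in the greenhouse. In loam soil–sand blend, seeds got a preemergence directed soil spray, while postemergence plants were 2 to 10 cm tall at spraying.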

[2] = tested on: barnyardgrass (Echinochloa crus-galli); test: Test A preemergence; details: for Plant response rating, Barnyardgrass: 125 g ai/ha, preemergence, 0 to 100 scale (0 no effect, 100 complete control); for Barnyardgrass plant response rating (0 to 100 scale, 0 is no effect, 100 is complete control): Preemergence, 500 g ai/ha, visual injury approx. 10 d
How it was run: as §1

[3] = tested on: giant foxtail (Setaria faberii); test: Test A preemergence; details: for Plant response rating, Foxtail, Giant: 125 g ai/ha, preemergence, 0 to 100 scale (0 no effect, 100 complete control); for Foxtail, Giant plant response rating (0 to 100 scale, 0 is no effect, 100 is complete control): Preemergence, 500 g ai/ha, visual injury approx. 10 d
How it was run: as §1

[4] = tested on: pigweed (Amaranthus retroflexus); test: Test A preemergence; details: for Plant response rating, Pigweed: 125 g ai/ha, preemergence, 0 to 100 scale (0 no effect, 100 complete control); for Pigweed plant response rating (0 to 100 scale, 0 is no effect, 100 is complete control): Preemergence, 500 g ai/ha, visual injury approx. 10 d
[5] = tested on: ragweed (common ragweed, Ambrosia elatior); test: Test A preemergence; details: for Plant response rating, Ragweed: 125 g ai/ha, preemergence, 0 to 100 scale (0 no effect, 100 complete control); for Ragweed plant response rating (0 to 100 scale, 0 is no effect, 100 is complete control): Preemergence, 500 g ai/ha, visual injury approx. 10 d
How it was run: as §1

[6] = tested on: ryegrass, Italian (Italian ryegrass, Lolium multiflorum); test: Test A preemergence; details: for Plant response rating, Ryegrass, Italian: 125 g ai/ha, preemergence, 0 to 100 scale (0 no effect, 100 complete control); for Ryegrass, Italian plant response rating (0 to 100 scale, 0 is no effect, 100 is complete control): Preemergence, 500 g ai/ha, visual injury approx. 10 d
How it was run: as §1

[7] = tested on: Galium (catchweed bedstraw, Galium aparine); test: Test A postemergence; details: postemergence; for Galium plant response rating: 125 g ai/ha, visual injury rating on 0 to 100 scale (0 no effect, 100 complete control), approx. 10 d; for Plant response rating, Galium: 500 g ai/ha, 0 to 100 scale, 0 no effect, 100 complete control
How it was run: as §1

[8] = tested on: Kochia (Kochia scoparia); test: Test A postemergence; details: postemergence; for Kochia plant response rating: 125 g ai/ha, visual injury rating on 0 to 100 scale (0 no effect, 100 complete control), approx. 10 d; for Plant response rating, Kochia: 500 g ai/ha, 0 to 100 scale, 0 no effect, 100 complete control
How it was run: as §1

[9] = tested on: barnyardgrass (Echinochloa crus-galli); test: Test A postemergence; details: postemergence; for Barnyardgrass plant response rating: 125 g ai/ha, visual injury rating on 0 to 100 scale (0 no effect, 100 complete control), approx. 10 d; for Plant response rating, Barnyardgrass: 500 g ai/ha, 0 to 100 scale, 0 no effect, 100 complete control
How it was run: as §1

[10] = tested on: blackgrass (Alopecurus myosuroides); test: Test A postemergence; details: postemergence; for Blackgrass plant response rating: 125 g ai/ha, visual injury rating on 0 to 100 scale (0 no effect, 100 complete control), approx. 10 d; for Plant response rating, Blackgrass: 500 g ai/ha, 0 to 100 scale, 0 no effect, 100 complete control
How it was run: as §1

[11] = tested on: corn (Zea mays); test: Test A postemergence; details: postemergence; for Corn plant response rating: 125 g ai/ha, visual injury rating on 0 to 100 scale (0 no effect, 100 complete control), approx. 10 d; for Plant response rating, Corn: 500 g ai/ha, 0 to 100 scale, 0 no effect, 100 complete control
How it was run: as §1

[12] = tested on: giant foxtail (Setaria faberii); test: Test A postemergence; details: postemergence; for Foxtail, Giant plant response rating: 125 g ai/ha, visual injury rating on 0 to 100 scale (0 no effect, 100 complete control), approx. 10 d; for Plant response rating, Foxtail, Giant: 500 g ai/ha, 0 to 100 scale, 0 no effect, 100 complete control
How it was run: as §1

[13] = tested on: pigweed (Amaranthus retroflexus); test: Test A postemergence; details: postemergence; for Pigweed plant response rating: 125 g ai/ha, visual injury rating on 0 to 100 scale (0 no effect, 100 complete control), approx. 10 d; for Plant response rating, Pigweed: 500 g ai/ha, 0 to 100 scale, 0 no effect, 100 complete control
How it was run: as §1

[14] = tested on: ragweed (common ragweed, Ambrosia elatior); test: Test A postemergence; details: postemergence; for Ragweed plant response rating: 125 g ai/ha, visual injury rating on 0 to 100 scale (0 no effect, 100 complete control), approx. 10 d; for Plant response rating, Ragweed: 500 g ai/ha, 0 to 100 scale, 0 no effect, 100 complete control
How it was run: as §1

[15] = tested on: ryegrass, Italian (Italian ryegrass, Lolium multiflorum); test: Test A postemergence; details: postemergence; for Ryegrass, Italian plant response rating: 125 g ai/ha, visual injury rating on 0 to 100 scale (0 no effect, 100 complete control), approx. 10 d; for Plant response rating, Ryegrass, Italian: 500 g ai/ha, 0 to 100 scale, 0 no effect, 100 complete control
How it was run: as §1

[16] = tested on: wheat (Triticum aestivum); test: Test A postemergence; details: postemergence; for Wheat plant response rating: 125 g ai/ha, visual injury rating on 0 to 100 scale (0 no effect, 100 complete control), approx. 10 d; for Plant response rating, Wheat: 500 g ai/ha, 0 to 100 scale, 0 no effect, 100 complete control
How it was run: as §1

[17] = tested on: barnyardgrass (Echinochloa crus-galli); test: Test B flooded paddy test; details: Flood, 250 g ai/ha; 0 to 100 scale where 0 is no effect and 100 is complete control; 13 to 15 d
How it was run: (§2)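 Rating scale 0–100 (visual, vs untreated controls) after a 13–15 d greenhouse period; application to the flood layer, 3 cm above soil and maintained; plants at 2-leaf stage when treated.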

[18] = tested on: ducksalad (Heteranthera limosa); test: Test B flooded paddy test; details: Flood, 250 g ai/ha; 0 to 100 scale where 0 is no effect and 100 is complete control; 13 to 15 d
How it was run: as §2

[19] = tested on: rice (Oryra sativa); test: Test B flooded paddy test; details: Flood, 250 g ai/ha; 0 to 100 scale where 0 is no effect and 100 is complete control; 13 to 15 d
How it was run: as §2

[20] = tested on: sedge, umbrella (small-flower umbrella sedge, Cyperus difformis); test: Test B flooded paddy test; details: Flood, 250 g ai/ha; 0 to 100 scale where 0 is no effect and 100 is complete control; 13 to 15 d
How it was run: as §2

Compound	Plant response rating, Kochia [1]	Kochia plant response rating (0 to 100 scale, 0 is no effect, 100 is complete control) [1]	Plant response rating, Barnyardgrass [2]	Barnyardgrass plant response rating (0 to 100 scale, 0 is no effect, 100 is complete control) [2]	Plant response rating, Foxtail, Giant [3]	Foxtail, Giant plant response rating (0 to 100 scale, 0 is no effect, 100 is complete control) [3]	Plant response rating, Pigweed [4]	Pigweed plant response rating (0 to 100 scale, 0 is no effect, 100 is complete control) [4]	Plant response rating, Ragweed [5]	Ragweed plant response rating (0 to 100 scale, 0 is no effect, 100 is complete control) [5]	Plant response rating, Ryegrass, Italian [6]	Ryegrass, Italian plant response rating (0 to 100 scale, 0 is no effect, 100 is complete control) [6]	Galium plant response rating [7]	Plant response rating, Galium [7]	Kochia plant response rating [8]	Plant response rating, Kochia [8]	Barnyardgrass plant response rating [9]	Plant response rating, Barnyardgrass [9]	Blackgrass plant response rating [10]	Plant response rating, Blackgrass [10]	further results
CS(=O)(=O)c1ccccc1NC(=O)C1C(=O)NCC1c1ccc(Br)cc1 (stereo not drawn) [Compound 452]	60	70	60	90	90	90	80	90	20	60	0	30	50	50	50	70	20	70	0	60	Corn plant response rating [11]: 0; Plant response rating, Corn [11]: 0; Foxtail, Giant plant response rating [12]: 60; Plant response rating, Foxtail, Giant [12]: 80; Pigweed plant response rating [13]: 50; Plant response rating, Pigweed [13]: 70; Ragweed plant response rating [14]: 0; Plant response rating, Ragweed [14]: 30; Ryegrass, Italian plant response rating [15]: 0; Plant response rating, Ryegrass, Italian [15]: 20; Wheat plant response rating [16]: 0; Plant response rating, Wheat [16]: 20; Plant response rating, Barnyardgrass [17]: 0; Plant response rating, Ducksalad [18]: 100; Plant response rating, Rice [19]: 0; Plant response rating, Sedge, Umbrella [20]: 0
CC(=O)Oc1cccc(C2CNC(=O)C2C(=O)Nc2cccc(F)c2F)c1 (stereo not drawn) [Compound 432]	0	0	30	40	0	0	0	0	0	0	0	0	0	0	0	0	20	30	0	0	Corn plant response rating [11]: 0; Plant response rating, Corn [11]: 0; Foxtail, Giant plant response rating [12]: 40; Plant response rating, Foxtail, Giant [12]: 30; Pigweed plant response rating [13]: 0; Plant response rating, Pigweed [13]: 0; Ragweed plant response rating [14]: 0; Plant response rating, Ragweed [14]: 0; Ryegrass, Italian plant response rating [15]: 0; Plant response rating, Ryegrass, Italian [15]: 20; Wheat plant response rating [16]: 0; Plant response rating, Wheat [16]: 0; Plant response rating, Barnyardgrass [17]: 20; Plant response rating, Ducksalad [18]: 0; Plant response rating, Rice [19]: 15; Plant response rating, Sedge, Umbrella [20]: 0
